# Patent US20260209297A1, “ANTIMICROBIAL PEPTIDES AND MODIFICATIONS THEREOF” (priority 2022, published 2026)
# Read-outs that look alike come from different tables or passages of the source. Positions of bridges follow the written chain, without caps; N, C: chain ends. Residues, ends and D or L forms follow the SMILES beside them. No end group written: not given here.
# Experiments:
# [1] = test system: Salmonella typhimurium var. Copenhagen; assay: Antibacterial growth inhibition in Mueller-Hinton media (OD600); format: cell-based; settings: 37° C. overnight
# [2] = test system: Enterotoxigenic E. coli-F4; assay: as above; format: cell-based; settings: 37° C. overnight
# Experimental: Salmonella typhimurium var. Copenhagen, Enterotoxigenic E. coli-F4 and Listeria monocytogens (F5244) strains were grown overnight on an LB agar plate at 37_C. A small number of bacteria was scraped from the plate and added to Mueller-Hinton (MH) growth media and grown to log phase. Cells were diluted to 1-3×10^6 CFU/mL and 50 μl were added to each well in a polypropylene 96-well plate. Synthesized peptide GMA4C_V1A was diluted into 0.2% BSA, 0.01% acetic acid solution and added to the concentration of 0.2, 0.4, 0.80, 1.6, 3.25, 7.5, 15, 30 and 60 and 120 µM. Then, 50 μl of each peptide solution was added to 50 μl of bacterial cells. Plates were parafilmed and incubated at 37° C. overnight. The concentrations at which bacterial growth inhibition was determined based on the OD600 nm value at each concentration relative to the OD600 nm value of MH medium alone and that of bacterial growth in MH medium without any peptide.
# P. capsici [3] = assay: Disease symptom reduction on tomato leaves; format: in vivo; settings: compared with GMA4C_AC
# From the text: Antifungal activity in planta.
# B. cinerea = assay: MIC antifungal assay in SFM culture media (with or without added salts); format: cell-based, Botrytis cinerea; settings: for antifungal activity relative to the wild-type GMA4C_AC control, B. cinerea: in vitro, low cationic conditions
# C. parapsilosis = assay: MIC, CLSI M27/M38, half-strength potato dextrose broth; format: cell-based, Candida parapsilosis; settings: C. parapsilosis ATCC 22019; Table 8
# Experimental: (§1) MICs were determined at 24-72 hours.
# Candida auris = settings: for MIC values (μg/ml) 100%: Table 8
# P. capsici [4] = assay: MIC antifungal assay in SFM culture media; format: cell-based; settings: in vitro, low cationic conditions
# L. monocytogenes F5244 = assay: Antibacterial growth inhibition in Mueller-Hinton media (OD600); format: cell-based, Listeria monocytogens; settings: 37° C. overnight
# Aspergillus fumigatus = settings: for MIC values (μg/ml) 100%: Aspergillus fumigatus AF293, Table 8
# F. oxysporum = assay: MIC antifungal assay in SFM culture media; format: cell-based; settings: in vitro, low cationic conditions
# Candida albicans = settings: for MIC values (μg/ml) 100%: Table 8
# F. graminearum = format: cell-based, Fusarium graminearum; settings: in vitro, low cationic conditions
# Coccidioides sp. = format: cell-based; settings: Table 8
# Fusarium (F. solani) = assay: MIC, CLSI M27/M38, half-strength potato dextrose broth; format: cell-based; settings: Fusarium F4 (F. solani); Table 8
# Experimental: as §1
# Fusarium (F. oxysporum) = assay: as above; format: cell-based; settings: Table 8
# Experimental: as §1
# C. albicans = assay: Peptide or protein/Fluconazole combination MIC and FICI; settings: combination with Fluconazole
# Tricophyton rubrum = assay: MIC against human nail pathogens; settings: isolate 23014; Table 13
# [5] = test system: Tricophyton metagrophytes; assay: MIC against human nail pathogens; settings: isolate 26103; Table 13
Compound,"antifungal activity relative to the wild-type GMA4C_AC control, B. cinerea (B. cinerea)",MIC values (μg/ml) 100% (C. parapsilosis),MIC values (μg/ml) 100% (Candida auris; Candida auris DI17-46),MIC values (μg/ml) 100% (Candida auris; Candida auris DI17-47),MIC values (μg/ml) 100% (Candida auris; Candida auris DI17-48),"antifungal activity relative to the wild-type GMA4C_AC control, P. capsici (P. capsici [4])",MIC values (μg/ml) 100% (Aspergillus fumigatus),"antifungal activity relative to the wild-type GMA4C_AC control, F. oxysporum (F. oxysporum)",MIC values (μg/ml) 100% (Candida albicans; Candida albicans ATCC 90028),MIC values (μg/ml) 100% (Candida albicans; Candida albicans CA3),MIC values (μg/ml) 100% (Candida albicans; Candida albicans SC5314),"antifungal activity relative to the wild-type GMA4C_AC control, F. graminearum (F. graminearum)",MIC values (μg/ml) 100% (Coccidioides sp.; Coccidioides sp. Cocci1),MIC values (μg/ml) 100% (Coccidioides sp.; Coccidioides sp. Cocci2),MIC values (μg/ml) 100% (Coccidioides sp.; Coccidioides sp. DI17-143),other results
CC[C@H](C)[C@H](NC(=O)[C@H](CCCNC(=N)N)NC(=O)[C@@H](NC(=O)[C@H](CS)NC(=O)[C@H](Cc1ccccc1)NC(=O)[C@H](CS)NC(=O)[C@H](CCCNC(=N)N)NC(=O)[C@H](CCCNC(=N)N)NC(=O)[C@H](CCCNC(=N)N)NC(=O)[C@H](Cc1ccccc1)NC(=O)CNC(=O)[C@H](CCCCN)NC(=O)[C@H](CS)NC(=O)[C@H](CCCNC(=N)N)NC(=O)CNC(=O)CN)[C@@H](C)O)C(=O)N[C@@H](CS)C(N)=O [GMA4C_V1A] (H-GGRCKGFRRRCFCTRIC-NH2; N-terminus assumed),equivalent,4 µg/mL,8 µg/mL,8 µg/mL,8 µg/mL,equivalent,32 µg/mL,equivalent,8 µg/mL,8 µg/mL,8 µg/mL,equivalent,8 µg/mL,4 µg/mL,8 µg/mL,"Concentrations (in μM) at which growth inhibition was observed, S. Typhimurium var. Copenhagen [1]: 15 to 60 µM; Concentrations (in μM) at which growth inhibition was observed, Enterotoxigenic E. coli-F4 [2]: 7.5 to 60 µM; reducing disease symptoms caused by P. capsici (P. capsici [3]): more effective; fungal growth inhibition at 6 μM (B. cinerea; B. cinerea, in presence of 2 mM CaCl2, 6 μM): inhibit fungal growth; potency of activity relative to GMA4C_AC (B. cinerea; B. cinerea, in presence of 100 mM NaCl or 100 mM KCl): 2 fold; Concentrations (in μM) at which growth inhibition was observed, L. monocytogenes F5244 (L. monocytogenes F5244): 15 to 30 µM"
CC[C@H](C)[C@H](NC(=O)[C@H](CCCNC(=N)N)NC(=O)[C@@H](NC(=O)[C@H](CS)NC(=O)[C@H](Cc1ccccc1)NC(=O)[C@H](CS)NC(=O)[C@H](CCCNC(=N)N)NC(=O)[C@H](CCCNC(=N)N)NC(=O)[C@H](CCCNC(=N)N)NC(=O)[C@H](Cc1ccccc1)NC(=O)CNC(=O)[C@H](CCCNC(=N)N)NC(=O)[C@H](CS)NC(=O)[C@H](CCCNC(=N)N)NC(=O)CNC(=O)CN)[C@@H](C)O)C(=O)N[C@@H](CS)C(N)=O [GMA4C_V2A] (H-GGRCRGFRRRCFCTRIC-NH2; N-terminus assumed),two-fold reduction,8 µg/mL,16 µg/mL,16 µg/mL,16 µg/mL,–,32 µg/mL,–,16 µg/mL,16 µg/mL,16 µg/mL,two-fold reduction,8 µg/mL,16 µg/mL,16 µg/mL,MIC values (μg/ml) 100% (Fusarium (F. solani)): 8 µg/mL; MIC values (μg/ml) 100% (Fusarium (F. oxysporum); Fusarium F1 (F. oxysporum)): 8 µg/mL; MIC values (μg/ml) 100% (Fusarium (F. oxysporum); Fusarium F2 (F. oxysporum)): 16 µg/mL
CC[C@H](C)[C@H](NC(=O)[C@H](CCCNC(=N)N)NC(=O)[C@@H](NC(=O)[C@@H](NC(=O)[C@H](Cc1ccccc1)NC(=O)[C@@H](NC(=O)[C@H](CCCNC(=N)N)NC(=O)[C@H](CCCNC(=N)N)NC(=O)[C@H](CCCNC(=N)N)NC(=O)[C@H](Cc1ccccc1)NC(=O)CNC(=O)[C@H](CCCNC(=N)N)NC(=O)[C@H](CS)NC(=O)[C@H](CCCNC(=N)N)NC(=O)CNC(=O)CN)C(C)C)C(C)C)[C@@H](C)O)C(=O)N[C@@H](CS)C(N)=O [GMA4C_V3A] (H-GGRCRGFRRRVFVTRIC-NH2; N-terminus assumed),equivalent,–,–,–,–,equivalent,–,equivalent,–,–,–,equivalent,–,–,–,Interpretation (C. albicans): Conclusion: GMA4C_v3 shows synergistic enhancement of antifungal activity against drug resistant C. albicans in combination with Fluconazole; Candida auris (38883) MIC (Candida auris): 5.6 µM; MIC in μM Aspergillus fumigatus (36843) (Aspergillus fumigatus): 11.2 µM; Candida albicans (33795) MIC (Candida albicans): 2.8 µM
"OeDef1_V3: OeDef1 variant, printed with SEQ ID NO: 769 in Table 13 (GACLKNRHSKHYGWFWYYRHCY-NH2; disulfide 3-21 (inferred))",–,–,–,–,–,–,–,–,–,–,–,–,–,–,–,"MIC in μM Tricophyton rubrum (23014) (Tricophyton rubrum): 4.0 µM; MIC in μM Tricophyton metagrophytes (26103) [5]: 4.0 µM; MIC in μM Aspergillus fumigatus (36843) (Aspergillus fumigatus; isolate 36843, Table 13): >7.9 µM"
